Values joined by “and” are separate entries in the source; they are usually repeats but may differ in a detail not shown here. Equal values may be shown once.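 Protocol summary: plate cells (96-well), add compound at 5 concentrations, incubate 48 h, interpolate endpoints linearly. Abbreviation: GI50, concentration required for 50% inhibition of growth. TGI: concentration producing complete growth inhibition.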

Some test systems named below: M19-MEL melanoma; KM20L2 colon; XF 498 CNS; DMS 273 small cell lung; SNB-78 CNS; RXF-631 renal; LXFL 529 NSCLC; HOP-18 NSCLC; MDA-N.
What all share (test): inhibition of tumour cell growth, NCI panel, 48 h

On to `c1ccc(C2OC3(CCC[C@H]4C[C@H]43)O[C@H]2c2ccccc2)cc1` (stereo partly drawn), for which the TGI in the assay on M19-MEL melanoma is 84.8 µM; in the assay with KM20L2 colon it was over 100 µM; in the assay on XF 498 CNS, 43.8 µM; in the assay with DMS 273 small cell lung it was over 100 µM; in the assay on SNB-78 CNS it was over 100 µM; with RXF-631 renal, over 100 µM.
As to `O=C1N2Cc3c4ccc5c3CN3C(=O)N6Cc7c(ccc(c7CN1C6(c1ccccc1)C23c1ccccc1)OCCOCCNCCOCCO4)OCCOCCNCCOCCO5` (stereo not drawn), the TGI is over 100 µM in the assay with M19-MEL melanoma; over 100 µM in the assay with KM20L2 colon; 53.7 µM in the assay on LXFL 529 NSCLC; 28.9 µM in the assay on HOP-18 NSCLC; over 100 µM in the assay on XF 498 CNS; over 100 µM with DMS 273 small cell lung. Also, the TGI in the assay on SNB-78 CNS and in the assay on RXF-631 renal was over 100 µM throughout.
As to `O=C1C(c2ccc(Br)cc2)=[N+]([O-])c2ccccc21`, the TGI with M19-MEL melanoma was 22.3 µM; with KM20L2 colon, 38.5 µM; with LXFL 529 NSCLC it was 18.8 µM; in the assay with HOP-18 NSCLC it was 27.3 µM; with XF 498 CNS it was 31.3 µM.
For `O=C1CC(c2cccc(F)c2)Nc2cc3c(cc21)OCO3` (stereo not drawn), in the assay with MDA-N, the GI50 was under 0.01 µM; the TGI is 0.0377 µM and < 0.01 µM.
As to `O=C(O)[C@H](NS(=O)(=O)c1ccc(F)cc1)c1ccccc1`, the TGI with M19-MEL melanoma, in the assay with KM20L2 colon, with LXFL 529 NSCLC, in the assay on HOP-18 NSCLC, in the assay on XF 498 CNS and with DMS 273 small cell lung was over 100 µM throughout. The molecule further gave a TGI with SNB-78 CNS of over 100 µM.
Regarding `O=[N+]([O-])C=C(c1ccc(Cl)cc1)c1ccc(Cl)cc1`, the TGI is 38.9 µM with KM20L2 colon, 28.5 µM in the assay with LXFL 529 NSCLC, 20.1 µM in the assay with DMS 273 small cell lung and 44 µM with SNB-78 CNS.
`OC(COC(c1ccccc1)(c1ccccc1)c1ccccc1)C(O)CC1SCCS1` (stereo not drawn) displayed a TGI in the assay with MDA-N of 60.1 µM.
Turning to `CN(C)CCNC(=O)c1cccc2cc3c(Cl)cccc3nc12`, the TGI in the assay on M19-MEL melanoma was 3.18 µM; in the assay on KM20L2 colon it was 4.75 µM; with HOP-18 NSCLC, over 27.6 µM; with XF 498 CNS, 1.64 µM; in the assay with DMS 273 small cell lung it was over 100 µM; in the assay with SNB-78 CNS, 8.26 µM. The molecule further had a TGI in the assay on RXF-631 renal of over 100 µM.
Take `CCOC(=O)C(=O)CC1=Nc2ccccc2SC(c2cccc(C)c2)C1` (stereo not drawn): the TGI in the assay with M19-MEL melanoma is 40.9 µM; in the assay on KM20L2 colon, 32.2 µM; with LXFL 529 NSCLC, 31.9 µM; with DMS 273 small cell lung, 37.9 µM; with SNB-78 CNS, 32.4 µM; in the assay on RXF-631 renal, 29.4 µM.
With `CC1/C(=N\O)CC(c2ccccc2)N(C)C1c1ccccc1` (stereo not drawn), the TGI in the assay on M19-MEL melanoma, in the assay on KM20L2 colon, in the assay on LXFL 529 NSCLC, in the assay on DMS 273 small cell lung, in the assay on SNB-78 CNS and in the assay with RXF-631 renal was over 100 µM each time.
For `CC1=C(C(=O)Nc2ccccc2)C(c2cccc3ccccc23)C(C(=O)Nc2ccccc2)=C(C)N1`, the TGI with M19-MEL melanoma came to 34.5 µM; in the assay with KM20L2 colon, 36.2 µM; in the assay with LXFL 529 NSCLC, 34.4 µM; in the assay on HOP-18 NSCLC, 46.8 µM; with DMS 273 small cell lung it was 40.9 µM; in the assay on SNB-78 CNS, 94.3 µM.
`O=S(=O)(O)c1cc(O)c(N=Nc2ccc(O)cc2O)c2ccccc12` returned a TGI in the assay on MDA-N of over 100 µM.
For the molecule `Cc1cc2c(C)n(Cc3ccccc3Cl)nc2c(C(=O)O)c1C`, the TGI with M19-MEL melanoma, in the assay on KM20L2 colon, with LXFL 529 NSCLC, in the assay with HOP-18 NSCLC, with XF 498 CNS and in the assay with DMS 273 small cell lung was over 100 µM in each case. Also, the TGI in the assay on SNB-78 CNS is over 100 µM.
Regarding `O=C(CC1OC(O)C(Cl)=C1Cl)c1cccnc1` (stereo not drawn), the TGI with M19-MEL melanoma, in the assay with KM20L2 colon, in the assay on LXFL 529 NSCLC, in the assay on HOP-18 NSCLC, in the assay on XF 498 CNS and with DMS 273 small cell lung was over 100 µM each time. The TGI in the assay with SNB-78 CNS and in the assay with RXF-631 renal was over 100 µM throughout.
As for `CN(C)C(=N/O)/C(=N\O)N(C)C`, the TGI in the assay with M19-MEL melanoma, in the assay on KM20L2 colon, with LXFL 529 NSCLC, in the assay on HOP-18 NSCLC, with XF 498 CNS and with DMS 273 small cell lung was over 100 µM each time. The TGI in the assay with SNB-78 CNS and with RXF-631 renal was over 100 µM in each case.
Regarding `O=C1C=CC=C/C1=C1/SC(c2ccccc2)=C(O)N1c1ccccc1`, the TGI in the assay with M19-MEL melanoma, in the assay with KM20L2 colon, in the assay on LXFL 529 NSCLC, with DMS 273 small cell lung and in the assay on SNB-78 CNS was over 100 µM in each case.
For `C[CH2][Ge]([CH2]C)([CH2]C)[O]C(=O)C(OC(C)=O)c1ccccc1` (stereo not drawn), the GI50 in the assay with M19-MEL melanoma, with KM20L2 colon, with LXFL 529 NSCLC, in the assay on HOP-18 NSCLC, in the assay on SNB-78 CNS and in the assay with RXF-631 renal was over 100 µM throughout. The TGI in the assay with M19-MEL melanoma was over 100 µM; in the assay on KM20L2 colon, over 100 µM; in the assay with LXFL 529 NSCLC it was over 100 µM; in the assay with HOP-18 NSCLC, over 100 µM; with XF 498 CNS, 31 µM; in the assay with SNB-78 CNS, over 100 µM. This molecule also displayed a TGI in the assay with RXF-631 renal of over 100 µM.
Regarding `COc1ccc2c3c([nH]c2c1[N+](=O)[O-])C(C)N(Cc1ccccc1)CC3` (stereo not drawn), the TGI in the assay on KM20L2 colon is over 100 µM; in the assay on LXFL 529 NSCLC, over 100 µM; in the assay on DMS 273 small cell lung, 11.6 µM; with SNB-78 CNS, over 100 µM.
With `O=C(/C=C\c1ccc([N+](=O)[O-])cc1)c1ccccc(=O)c1O`, the TGI with MDA-N is over 30.5 µM.
With `CC1=C(/C=C/C(C)=C/C2CC(N(C)C)=CC(=O)O2)C(C)(C)CCC1` (stereo not drawn), the TGI was 29.3 µM in the assay on M19-MEL melanoma; 24 µM in the assay with LXFL 529 NSCLC; 26.5 µM in the assay with HOP-18 NSCLC; 25.1 µM with XF 498 CNS; 27.1 µM in the assay on DMS 273 small cell lung; 41.9 µM in the assay on SNB-78 CNS. For the same molecule, the TGI in the assay on RXF-631 renal stood at 27.8 µM.
In the case of `Nc1ccc(C(=O)N/C(=C\c2cccc([N+](=O)[O-])c2)c2nc3[nH]c(=S)[nH]c(=O)c3[nH]2)cc1`, the TGI is over 100 µM with M19-MEL melanoma; over 100 µM in the assay on KM20L2 colon; over 100 µM with LXFL 529 NSCLC; 34.3 µM in the assay with XF 498 CNS; over 100 µM in the assay with SNB-78 CNS; over 100 µM in the assay with MDA-N. In the assay on RXF-631 renal, this molecule displayed a TGI of over 100 µM.
As for `ClC/C=C/COC1CCCCO1` (stereo not drawn), the TGI in the assay with M19-MEL melanoma, with KM20L2 colon, with LXFL 529 NSCLC, with HOP-18 NSCLC, in the assay on XF 498 CNS and in the assay with DMS 273 small cell lung was over 100 µM each time. The TGI in the assay on SNB-78 CNS and in the assay with RXF-631 renal was over 100 µM each time.
In the case of `CN(c1ccc(C(=O)c2ccc(N(C)S(C)(=O)=O)cc2)cc1)S(C)(=O)=O`, the TGI in the assay on M19-MEL melanoma, in the assay with KM20L2 colon, in the assay on LXFL 529 NSCLC and with SNB-78 CNS was over 100 µM each time.
As to `c1ccc2c3c([nH]c2c1)[C@H]1C2CCCCN2CN1CC3` (stereo partly drawn), the TGI in the assay on M19-MEL melanoma, in the assay on KM20L2 colon, in the assay with LXFL 529 NSCLC, in the assay on HOP-18 NSCLC, in the assay with XF 498 CNS and in the assay on DMS 273 small cell lung was over 100 µM each time. The TGI in the assay on SNB-78 CNS and in the assay with RXF-631 renal was over 100 µM each time.
Regarding `O=S(=O)(NNc1ccccc1)c1ccccc1`, the TGI in the assay with MDA-N was determined as 25.3 µM.
On to `Cc1cccc(C)c1NC(=O)C1=NC(=S)NC(c2ccccc2)C1c1nc2ccccc2s1` (stereo not drawn), for which the TGI with M19-MEL melanoma, in the assay with KM20L2 colon, in the assay on LXFL 529 NSCLC, in the assay on HOP-18 NSCLC, with XF 498 CNS and with DMS 273 small cell lung was over 100 µM throughout. This molecule came in with a TGI in the assay with SNB-78 CNS of over 100 µM.
As for `CC(=O)[O-].Cn1ccnc1CNCc1nccn1C.[Cu+2].[O-][Cl+3]([O-])([O-])[O-]`, the GI50 with KM20L2 colon, in the assay on LXFL 529 NSCLC, in the assay with HOP-18 NSCLC, with DMS 273 small cell lung and in the assay with SNB-78 CNS was over 100 µM in each case. For the same molecule, the TGI in the assay on KM20L2 colon, in the assay with LXFL 529 NSCLC, in the assay on HOP-18 NSCLC, in the assay on DMS 273 small cell lung and in the assay on SNB-78 CNS was over 100 µM each time.
`CN(C)c1ccc2oc(=O)c3ccccc3c2c1` came in with a TGI in the assay with MDA-N of over 100 µM.
On to `O=C([CH-]C(=O)c1ccccc1)c1ccccc1.[CH-]1CCCCC1.[CH-]1CCCCC1.[CH-]1CCCCC1.[Sn+4]`, for which, in the assay with KM20L2 colon, the GI50 was 12.3 µM and the TGI was 26.3 µM.
`O=c1[nH]c2ccccc2nc1/C=C(\O)c1ccccc1O`: the TGI with M19-MEL melanoma, in the assay with KM20L2 colon, with LXFL 529 NSCLC, with HOP-18 NSCLC, with DMS 273 small cell lung and in the assay with SNB-78 CNS was over 100 µM in each case.
For `C[N+](C)(C)CC(=O)N/N=C(/C(=O)Nc1ccc(Br)cc1)C1C(=O)NC(=O)NC1=O`, the TGI in the assay with M19-MEL melanoma, in the assay on KM20L2 colon, in the assay with LXFL 529 NSCLC, in the assay with HOP-18 NSCLC, in the assay with DMS 273 small cell lung and with SNB-78 CNS was over 100 µM throughout. In addition, in the assay on RXF-631 renal, the TGI was over 100 µM.
For `CC(C)(C)C1CCC2c3c([nH]c4ccccc34)C3C(=O)N(c4ccc(Cl)cc4)C(=O)C3C2C1` (stereo not drawn), in the assay on MDA-N, the GI50 was 94.9 µM and > 10 µM; the TGI is over 100 µM.
As for `CCc1cccc(C)c1NC(=O)C(=O)CC(=O)c1ccc(Cl)s1`, the TGI in the assay with M19-MEL melanoma, with KM20L2 colon, in the assay with LXFL 529 NSCLC, with HOP-18 NSCLC, in the assay on SNB-78 CNS and in the assay on RXF-631 renal was over 100 µM each time.
For the molecule `CCOC(=O)Oc1cc2c(c(OC)c1OC)-c1ccc(OC)c(=O)cc1C(NC(C)=O)CC2` (stereo not drawn), the TGI in the assay with M19-MEL melanoma was over 100 µM; in the assay with KM20L2 colon, 0.0866 µM; with LXFL 529 NSCLC, over 100 µM; with HOP-18 NSCLC, over 100 µM; with XF 498 CNS it was over 100 µM; with DMS 273 small cell lung, over 100 µM. In addition, the figures for the TGI in the assay on SNB-78 CNS, with MDA-N and with RXF-631 renal were over 100 µM, under 0.0216 µM and over 22.5 µM, respectively.
Regarding `CCOP(=O)(OCC)C1CCCOC1=O` (stereo not drawn), the TGI in the assay with M19-MEL melanoma, in the assay on KM20L2 colon, in the assay with LXFL 529 NSCLC, in the assay on HOP-18 NSCLC, in the assay on XF 498 CNS and in the assay with DMS 273 small cell lung was over 100 µM in each case. Further, the TGI with SNB-78 CNS and in the assay on RXF-631 renal was over 100 µM each time.

(Values after PubChem BioAssay (NCI).)
